In patent publication US20260250318A1, “COMPOSITIONS AND METHODS FOR CROSSING THE BLOOD BRAIN BARRIER” (VOYAGER THERAPEUTICS, INC., priority 2022, published 2026):

Key:
Conditions in all cases: synthetic library passage 3, intravenous, relative to wild-type AAV9
brain [1] = assay: NGS fold enrichment of synthetic library (passage 3) in BALB/c mice, first cross-species screen; type: in vivo
Summary of the method: (§1)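 Fold enrichment versus wild-type AAV9 was derived by NGS of RT-PCR-amplified RNA from nervous tissue, collected e.g. 28 days after IV dosing […]. The library (passage 3) was given to two NHPs aged 2-4 years and to 6-8-week BALB/c and C57Bl/6 mice (n=3 each).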

[2] = test system: brain, spinal cord, and DRG of the NHPs; assay: NGS fold enrichment of synthetic library (passage 3) in NHPs, first cross-species screen; type: in vivo, cynomolgus macaques (Macaca fascicularis)
Summary of the method: as §1

brain [3] = assay: NGS fold enrichment of synthetic library (passage 3) in C57Bl/6 mice, first cross-species screen; type: in vivo
Summary of the method: as §1

[4] = RNA from brain of BALB/c mice, NGS
[5] = RNA from spinal cord of NHPs, NGS
[6] = RNA from brain of C57Bl/6 mice, NGS

| Sequence | Fold enrichment over AAV9 in the brain of Mice (BALB/c) (brain [1]; RNA NGS, brain of BALB/c mice) [fold] | Fold enrichment over AAV9 in the brain of NHPs ([2]; RNA NGS, brain of NHPs) [fold] | Fold enrichment over AAV9 in the spinal cord of NHPs ([2]; RNA NGS, spinal cord of NHPs) [fold] | Fold enrichment over AAV9 in the brain of Mice (C57Bl/6) (brain [3]; RNA NGS, brain of C57Bl/6 mice) [fold] | Fold enrichment over AAV9 in the brain of Mice (BALB/c) (brain [1]; [4]) [fold] | Fold enrichment over AAV9 in the brain of NHPs ([2]; RNA from brain of NHPs, NGS) [fold] | Fold enrichment over AAV9 in the spinal cord of NHPs [2, 5] [fold] | Fold enrichment over AAV9 in the brain of Mice (C57Bl/6) (brain [3]; [6]) [fold] |
| --- | --- | --- | --- | --- | --- | --- | --- | --- |
| GSRLVHVHGQNQQT | 0.934 | 2.334 | 1.174 | 1.277 |  |  |  |  |
| GAVGHSYSGQNQQT | 0.536 | 1.706 | 0.808 | 0.306 |  |  |  |  |
| GNRDRPSSGQNQQT |  |  |  |  | 0.178 | 1.239 | 3.947 | 0.298 |
| GSGQNQQVAGLNNT |  |  |  |  | 0.492 | 1.386 | 3.218 | 0.449 |
| GASSLATSGQNQQT |  |  |  |  | 0.217 | 1.337 | 0.703 | 0.423 |
| GSGQNQQTVPSNLV |  |  |  |  | 0.281 | 1.201 | 0.791 | 0.434 |
| GSGQNQQSANKILT |  |  |  |  | 1.236 | 1.331 | 3.789 | 0.894 |
| GGSHTYGGGQNQQT |  |  |  |  | 0.730 | 1.241 | 13.065 | 0.982 |
| GRVLHSHAGQNQQT | 0.908 | 2.513 | 0.826 | 1.294 |  |  |  |  |
| GSGQNQQPSSRVTT | 0.504 | 1.012 | 2.179 | 0.784 |  |  |  |  |
| GSGEAARYEQNQQT | 0.125 | 1.020 | 0.000 | 0.107 |  |  |  |  |
| GRGAVMASGQNQQT | 0.605 | 1.072 | 0.923 | 0.783 |  |  |  |  |
| GSGQNHRPSVLQQT | 0.582 | 1.983 | 5.582 | 0.433 |  |  |  |  |
| GHSFVNRSGQNQQT | 0.756 | 2.447 | 11.148 | 1.305 |  |  |  |  |
| GSSGIPVSHQNQQT | 0.333 | 1.690 | 3.384 | 0.820 |  |  |  |  |
| GSGQNQQLQTLIRT | 0.514 | 1.538 | 1.425 | 0.813 |  |  |  |  |
| GSGQNQQTALGVKC | 1.014 | 1.835 | 1.343 | 1.378 |  |  |  |  |
| GSGHLFQSGQNQQT | 0.386 | 1.057 | 0.615 | 0.751 |  |  |  |  |
| GSGQNAGSFPNQQT | 0.286 | 1.928 | 12.575 | 1.091 |  |  |  |  |
| GSGQNQQTSVYMNT | 0.983 | 1.498 | 0.613 | 0.640 |  |  |  |  |
